Measurements as given in US10258617B2, “Dosing regimens for fast onset of antidepressant effect” (H. Lundbeck A/S, priority 2016, dated 2019).
Like-named read-outs stand apart in the source and are kept apart here.

How the values were obtained:
[1] = cited from earlier work
5-HT1B receptor = target: T1, 5-HT1B receptor (Macaca mulatta, UniProt F6SFA9); test: Example 1 PET monkey study: change in [11C]AZ10419369-5-HT1B receptor binding potential (BPND); assay type: in vivo, rhesus monkeys; conditions: rhesus monkey, iv, mean±standard error, n=3, read-out: ΔBPND (% of baseline); for change in vivo at 0.3 mg/kg: Vortioxetine 0.3 mg/kg IV; for change in vivo at 1 mg/kg: Vortioxetine 1.0 mg/kg IV
T1 construct: assess changes in the endogenous serotonin concentration in living rhesus monkeys; from tissue; host or cells: brain of living rhesus monkeys (PET)
T1 sequence (F6SFA9 1-390): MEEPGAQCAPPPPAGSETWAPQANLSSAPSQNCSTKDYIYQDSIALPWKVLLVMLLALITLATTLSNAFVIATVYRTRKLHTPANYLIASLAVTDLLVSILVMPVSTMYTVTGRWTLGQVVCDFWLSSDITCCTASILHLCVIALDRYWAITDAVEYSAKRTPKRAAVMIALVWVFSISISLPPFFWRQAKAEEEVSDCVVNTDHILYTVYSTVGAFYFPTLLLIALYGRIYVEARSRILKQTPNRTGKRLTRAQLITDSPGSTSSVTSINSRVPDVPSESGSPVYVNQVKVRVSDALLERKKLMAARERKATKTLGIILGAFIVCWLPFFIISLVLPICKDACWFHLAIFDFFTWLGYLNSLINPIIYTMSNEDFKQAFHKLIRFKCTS
From the text: (§1) Positron Emission Tomography (PET) was used to assess changes in the endogenous serotonin concentration in living rhesus monkeys. The objective of the present study was two-fold. […] The chemical name for [^11C]MADAM is [^11C] N,N-dimethyl-2-(2-amino-4-methylphenylthio)benzylamine.
(§2) FIG. 1 illustrates the study design used for assessment of serotonin releasing capacities. A similar study design was applied for assessment of SERT occupancy.

depression = conditions: FDA label of July 2014; oral treatment; cited from earlier work
[2] = target: T2, serotonin transporter (SERT) (Macaca mulatta, UniProt Q9MYX0); test: Example 1 PET monkey study: SERT occupancy with [11C]MADAM; assay type: in vivo, rhesus monkeys; conditions: rhesus monkey, iv, monkey brain
T2 construct: serotonin transporter occupancy in the monkey brain using the SERT radio-ligand; from tissue; host or cells: brain of living rhesus monkeys (PET)
T2 sequence (Q9MYX0 whole entry): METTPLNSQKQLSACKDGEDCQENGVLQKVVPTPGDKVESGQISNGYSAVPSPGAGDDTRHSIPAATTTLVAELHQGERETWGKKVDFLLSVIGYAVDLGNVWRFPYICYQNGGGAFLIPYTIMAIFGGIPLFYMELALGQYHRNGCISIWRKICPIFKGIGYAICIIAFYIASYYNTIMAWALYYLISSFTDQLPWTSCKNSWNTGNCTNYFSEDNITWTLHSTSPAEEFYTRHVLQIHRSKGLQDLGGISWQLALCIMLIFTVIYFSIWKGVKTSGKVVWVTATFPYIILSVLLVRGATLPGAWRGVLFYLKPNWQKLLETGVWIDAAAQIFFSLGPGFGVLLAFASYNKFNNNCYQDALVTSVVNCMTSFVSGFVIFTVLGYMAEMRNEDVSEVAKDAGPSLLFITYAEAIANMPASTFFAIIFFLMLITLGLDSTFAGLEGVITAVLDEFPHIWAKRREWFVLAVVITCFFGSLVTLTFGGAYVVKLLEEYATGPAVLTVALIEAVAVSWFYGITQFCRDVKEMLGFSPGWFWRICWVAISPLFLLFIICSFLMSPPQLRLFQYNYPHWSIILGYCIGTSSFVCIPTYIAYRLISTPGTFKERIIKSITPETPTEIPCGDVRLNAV
From the text: as §1, §2

change in vivo at 0.3 mg/kg (5-HT1B receptor; Amygdala): -12.4 ± 10.5% | change in vivo at 1 mg/kg (5-HT1B receptor; Amygdala): -39.5 ± 11.5% | change in vivo at 0.3 mg/kg (5-HT1B receptor; Caudate nucleus): -23.2 ± 7.4% | change in vivo at 1 mg/kg (5-HT1B receptor; Caudate nucleus): -47 ± 8% | change in vivo at 0.3 mg/kg (5-HT1B receptor; Dorsal raphe nucleus): -28.3 ± 13.6% | change in vivo at 1 mg/kg (5-HT1B receptor; Dorsal raphe nucleus): -55 ± 3.3% | change in vivo at 0.3 mg/kg (5-HT1B receptor; Frontal gyrus): -8.2 ± 8.2% | change in vivo at 1 mg/kg (5-HT1B receptor; Frontal gyrus): -32.8 ± 9.5% | change in vivo at 0.3 mg/kg (5-HT1B receptor; Globus pallidus): -16.3 ± 5.1% | change in vivo at 1 mg/kg (5-HT1B receptor; Globus pallidus): -41.2 ± 6.4% | change in vivo at 0.3 mg/kg (5-HT1B receptor; Hippocampus): -9.4 ± 8.9% | change in vivo at 1 mg/kg (5-HT1B receptor; Hippocampus): -27 ± 6.8% | change in vivo at 0.3 mg/kg (5-HT1B receptor; Midbrain): -21.9 ± 3% | change in vivo at 1 mg/kg (5-HT1B receptor; Midbrain): -49.4 ± 7.1% | change in vivo at 0.3 mg/kg (5-HT1B receptor; Occipital gyrup): -24.3 ± 3.2% | change in vivo at 1 mg/kg (5-HT1B receptor; Occipital gyrup): -54.1 ± 4.2% | change in vivo at 0.3 mg/kg (5-HT1B receptor; Putamen): -15.6 ± 8.5% | change in vivo at 1 mg/kg (5-HT1B receptor; Putamen): -40.8 ± 7.9% | change in vivo at 0.3 mg/kg (5-HT1B receptor; Thalamus): -23.9 ± 5% | change in vivo at 1 mg/kg (5-HT1B receptor; Thalamus): -42.5 ± 7% | change in vivo at 0.3 mg/kg (5-HT1B receptor; Ventral striatum): -25.6 ± 5.4% | change in vivo at 1 mg/kg (5-HT1B receptor; Ventral striatum): -47.7 ± 8.5% | receptor occupancy at 0.3 mg/kg ([2]; vortioxetine 0.3 mg/kg intravenously): ~50% | receptor occupancy at 1 mg/kg ([2]; vortioxetine 1.0 mg/kg intravenously): ~80%
Structure (SMILES): Cc1ccc(Sc2ccccc2N2CCNCC2)c(C)c1 [Vortioxetine, 1-[2-(2,4-dimethyl-phenylsulfanyl)-phenyl]piperazine]
steady-state plasma level (median AUC0-24) ([1]; once daily oral 5 mg): 161 ng·h/mL | steady-state plasma level (median AUC0-24) ([1]; once daily oral 10 mg): 323 ng·h/mL | steady-state plasma level (median AUC0-24) ([1]; once daily oral 15 mg): 484 ng·h/mL | steady-state plasma level (median AUC0-24) ([1]; once daily oral 20 mg): 645 ng·h/mL | time until steady-state plasma concentration is achieved ([1]; once daily oral administration): approximately 8 days | effect of vortioxetine is observed starting at week (depression): 2 week | full antidepressant effect not seen until week (depression): ≥ 4 week
